The numbers were not newly measured in patent US20220257802A1, “COMPRESSED SOLID COMPOSITION FOR MRI” (Ascelia Pharma AB, priority 2019, published 2022), which cites them from elsewhere.

For the series the following is noted: after oral intake.

As to `[Mn+2]` [manganese], the “first-pass effect in the liver” value was “up to 98%”.
